Experimental data as given in patent US8735439B2, “Chlorin e6-folic acid conjugate, preparation method thereof, and a pharmaceutical composition for the treatment of cancer comprising the same” (Diatech Korea Co., Ltd., priority 2009, dated 2014).

Legend:
[1] = test system: transporter of restored vectors (TRV); settings: cited from earlier work; for Km: read-out: KM (affinity of the carrier TRV)
Hela cells [2] = assay: Competition assay with exogenous folic acid, uptake in Hela cells; format: cell-based; settings: 4 μM/l folic acid, 24 hours
Excerpt: Then, the sample was centrifuged, the supernatant was taken, and the pellet was rewashed with cooled Hank's solution. The obtained pellet was again transferred into Hank's solution.

HeLa cell culture = assay: Phototoxicity (photodynamic activity), 3.5 h incubation, 3.3 joule/cm^2; format: cell-based; set-up: number of HELA cells relative to the control: unit not given here; settings: 3.5 hours incubation, photoexposure 3.3 joule/cm^2
Method: To examine the photodynamic effects of a photosensitizer on a HeLa cell culture, the photosensitizer solution was added to the nutrient media at a final concentration of 0.1, 0.5, 1.0, 5.0 or 10 mcg/ml on day 3 after transplanting the cell culture into flasks. The flasks were wrapped with a light protecting cover, and incubated at 37° C. for 3.5 hours. Then, the cells were washed with Hank's solution, and exposed on ice by a laser medical device “LD 680-2000” (wavelength: 670-690 nm) at a dose of 3.3 joule/cm^2. After 20-24 hours, the available cell monolayer was dispersed using a 0.02%-Versene solution, and the number of tumor cells was calculated in Goriaev's chamber. For each point, 3 flasks were used.

Hela cells [3] = assay: Accumulation in Hela cells; format: cell-based; settings: for concentration in Hela cells: 2×10^−5 M/l, 37° C.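 As to concentration in Hela cells: measured as suspension fluorescence intensity at excitation 405 nm and emission 665 nm.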
Method: The cellular accumulation and the targeted delivery of the photoactive compounds were investigated using Hela cells, which is one of the numerous tumor cell types that overexpress folate receptors.
Cells were cultivated for 3 days in medium 199, and transferred to Hank's solution/medium 199 (9/1). After 3 hours, the cell were collected by trypsin treatment from the substrate and placed in Hank's solution (10^5 ? /ml). To cell suspensions, chlorin e6 conjugates were added at a concentration of 2×10^−5 M/l, and incubated at 37° C. After 1, 5, 10, 15, and 24 hours, the samples were centrifuged, the pellet was washed with the cooled Hank's solution, and transferred to Hank's solution at a concentration being equal to that in the initial suspension.

HeLa tumor cells = assay: Cytotoxicity (antiproliferative assay) in the absence of light exposure; format: cell-based; settings: for number of HeLa cells: no light, 24 hours
Method: Cytotoxicity was analyzed, considering the intensity of proliferative processes in cells, photosensitizer concentration, and dose of optical power. For each point, 3 flasks with cell monolayer were used.
The monolayer culture of HeLa tumor cells was chosen and used as the cell.
The culture of HeLa tumor cells was grown in nutrient medium 199 or in nutrient medium containing hemohydrolyzate supplemented with 10% fetal bovine serum and […] of kanamycin. […]
Flasks with light-protective cover (dark cytotoxicity) were incubated at 37.5° C. for 1 hour. The cells were washed with Hank's solution 4 times. 2.0 ml of fresh nutrient medium were added, and the cells were irradiated at the temperature of melting ice for 5, 10, 15 or 20 mins by the light flux of a “METALAZ” laser medical device (wavelength: 627.8 nm, 578.2 or 510.6 nm) or “LD 680-2000” (wavelength: 670-690 nm), depending on the wavelength of maximum spectral absorption of the studied photosensitizer, at a dose of 40 J/cm^2. After 20-24 hours, the number of tumor cell was counted in Goriaev's chamber.

Hela cells [4] = assay: Phototoxicity, 24 h incubation, 1.5-15 joule/cm^2; format: cell-based; settings: 670-690 nm
Method: In other experiment, the cells were incubated with photosensitizers at 37° C. for 24 hours, and irradiated by exposed on ice by a laser medical device “LD 680-2000” (wavelength of 670-690 nm) in a dose of 1.5-15 joule/cm^2.

[5] = in benzol, standard to estimate γ; cited from earlier work

## CN(Cc1cnc2nc(N)nc(N)c2n1)c1ccc(C(=O)N[C@@H](CCC(=O)O)C(=O)O)cc1 [methotrexate]
[1]; tumor cells
  maximum rate of TRV transport: 1-12 nmol/min per cellular protein (g)
  Km: 4 to 8 µM

## C=Cc1c(C)c2cc3nc(c(CC(=O)O)c4[nH]c(cc5nc(cc1[nH]2)C(C)=C5CC)c(C)c4C(=O)O)C(CCC(=O)O)C3C (stereo not drawn) [chlorin e6, 13-carboxy-17-[2-carboxyethyl]-15-carboxymethyl-17,18-trans-dihydro-3-vinyl-8-ethyl-2,7,12,18-tetramethylporphyrin]
Hela cells [2]
  effect of free folic acid on uptake in Hela cells: no significant effect
HeLa cell culture; 0.1 mcg/ml
  number of HELA cells relative to the control: 87.1
HeLa cell culture; 0.5 mcg/ml
  number of HELA cells relative to the control: 83.6
HeLa cell culture; 1.0 mcg/ml
  number of HELA cells relative to the control: 64.7
HeLa cell culture; 5.0 mcg/ml
  number of HELA cells relative to the control: 19
HeLa cell culture; 10.0 mcg/ml
  number of HELA cells relative to the control: 3.8
Hela cells [3]; Hela cells
  time in which the majority binds with cells: ≤ 5 h
Hela cells [3]; incubation 1 hour
  concentration in Hela cells: 0.86 relative units/10^4 cl.
Hela cells [3]; incubation 5 hours
  concentration in Hela cells: 1.45 relative units/10^4 cl.
Hela cells [3]; incubation 10 hours
  concentration in Hela cells: 1.72 relative units/10^4 cl.
Hela cells [3]; incubation 15 hours
  concentration in Hela cells: 0.81 relative units/10^4 cl.
Hela cells [3]; incubation 24 hours
  concentration in Hela cells: 0.40 relative units/10^4 cl.
HeLa tumor cells; Hela cells, 24 hr incubation
  cytotoxicity in the absence of light exposure: no cytotoxicity
HeLa tumor cells; Hela cells, 24 hr incubation, absence of light exposure
  cell survival rate: about 90%
HeLa tumor cells; photosensitizer conc. 1 (μm)
  number of HeLa cells: 101.3 percentage of the control
HeLa tumor cells; photosensitizer conc. 2.5 (μm)
  number of HeLa cells: 99.1 percentage of the control
HeLa tumor cells; photosensitizer conc. 5.0 (μm)
  number of HeLa cells: 98.4 percentage of the control
HeLa tumor cells; photosensitizer conc. 10.0 (μm)
  number of HeLa cells: 95.5 percentage of the control
HeLa tumor cells; photosensitizer conc. 20.0 (μm)
  number of HeLa cells: 90.0 percentage of the control
HeLa tumor cells; photosensitizer conc. 30.0 (μm)
  number of HeLa cells: 89.7 percentage of the control
Hela cells [4]
  phototoxicity in survival test: little phototoxicity

## Nc1nc(O)c2nc(CNc3ccc(C(=O)N[C@@H](CCC(=O)O)C(=O)O)cc3)cnc2n1 [folic acid, N-[4(2-Amino-4-hydroxypteridin-6-ylmethylamino)benzoyl]-L(+)-glutamic acid]
[1]
  affinity of TRV-mediated transport: about 200 μM
[1]; tumor cells
  Km: 100 to 200 µM

## CCC1=C(CC)c2cc3[n-]c(cc4nc(cc5[n-]c(cc1n2)c(CC)c5CC)C(CC)=C4CC)c(CC)c3CC.[Pd+2] [Pd(II)-octa ethyl porphyrin]
[5]
  γ of the standard: one
